Measured values taken from patent publication US11534446B2, “Pharmaceutical composition comprising 3-beta-hydroxy-5-alpha-pregnan-20-one with improved storage and solubility properties” (ASARINA PHARMA AB, priority 2010, dated 2022).

Assay: UC1010 concentration in 0.2 μm filtrate of suspensions in sesame oil with cholesterol (Example 77)
Format: physicochemical
Details: sesame oil suspension
Procedure: Suspensions of 3-beta-hydroxy-5-alpha-pregnan-20-one were prepared for investigation of solubility as follows: cholesterol was first dissolved at room temperature in sesame oil at 10 and 20 mg/ml, respectively. Suspensions of 3-beta-hydroxy-5-alpha-pregnan-20-one in sesame oil with different amounts of cholesterol were prepared on a magnetic stirrer at about 500 rpm using a conventional Teflon coated stir bar, at room temperature for several days, with occasional cycling to 2-8° C. At this time, the particles have become substantially smaller. Thereafter, samples of the respective suspensions were filtered through a 0.2 μm filter and analyzed with regard to concentration of 3-beta-hydroxy-5-alpha-pregnan-20-one. The results are presented in Table 3 and FIG. 2 where it can be seen that increasing the amounts of cholesterol increases the soluble fraction of 3-beta-hydroxy-5-alpha-pregnan-20-one. […] FIGS. 3a and 3b show microscopy pictures taken at 5× enlargement of suspensions with a 3-beta-hydroxy-5-alpha-pregnan-20-one concentration of 10 mg/g and a cholesterol:3-beta-hydroxy-5-alpha-pregnan-20-one ratio of 1:1 immediately upon mixing (3a) and after several days of stirring (3b).

CC(=O)[C@H]1CC[C@H]2[C@@H]3CC[C@H]4C[C@@H](O)CC[C@]4(C)[C@H]3CC[C@]12C [3-beta-hydroxy-5-alpha-pregnan-20-one]
3-beta-hydroxy-5-alpha-pregnan-20-one concentration in filtrate (initial concentration 10 mg/g, weight ratio cholesterol to UC1010 0:1, 0.2 μm filter): 1 mg/mL
3-beta-hydroxy-5-alpha-pregnan-20-one concentration in filtrate (initial concentration 10 mg/g, weight ratio cholesterol to UC1010 1:1, 0.2 μm filter): 1.8 mg/mL
3-beta-hydroxy-5-alpha-pregnan-20-one concentration in filtrate (initial concentration 10 mg/g, weight ratio cholesterol to UC1010 2:1, 0.2 μm filter): 2.2 mg/mL
3-beta-hydroxy-5-alpha-pregnan-20-one concentration in filtrate (initial concentration 40 mg/g, weight ratio cholesterol to UC1010 1:2, 0.2 μm filter): 1.9 mg/mL
3-beta-hydroxy-5-alpha-pregnan-20-one concentration in filtrate (initial concentration 40 mg/g, weight ratio cholesterol to UC1010 1:4, 0.2 μm filter): 1.4 mg/mL
